Experimental data from the CheMixHub viscosity set.

Assay: xn = mol fraction of the nth substance listed

CCCCCCCC + CCO
298.15 K, 101.33 kPa
Conditions	viscosity [mPa·s]
x2 = 0.0986	0.523
x2 = 0.2153	0.533
x2 = 0.3204	0.557
x2 = 0.4431	0.603
x2 = 0.6117	0.686
x2 = 0.7378	0.779
x2 = 0.8362	0.873
x2 = 0.9134	0.973
x2 = 0.9773	1.071

CCCCCCCC + Cc1ccccc1
303.15 K, 101.33 kPa
Conditions	viscosity [mPa·s]
x2 = 0.2634	0.47
x2 = 0.4184	0.464
x2 = 0.8282	0.485
x2 = 0.888	0.498
x2 = 0.9417	0.508

CCCCCCCCCCCCCC + Cc1ccccc1
viscosity [mPa·s], 101 kPa
Conditions	x1 = 0.1106	x1 = 0.1996	x1 = 0.2947	x1 = 0.3965	x1 = 0.5013	x1 = 0.5988	x1 = 0.7002	x1 = 0.7982	x1 = 0.8995
298.15 K	0.697	0.803	0.909	1.038	1.168	1.318	1.468	1.664	1.86
303.15 K	0.654	0.748	0.842	0.962	1.081	1.211	1.341	1.513	1.685
308.15 K	0.613	0.699	0.786	0.894	1.002	1.115	1.228	1.384	1.54

O=[N+]([O-])c1ccccc1 + CCCCCO
293.15 K, 101.33 kPa
Conditions	viscosity [mPa·s]
x2 = 0.0258	1.964
x2 = 0.0556	1.924
x2 = 0.104	1.867
x2 = 0.18	1.856
x2 = 0.204	1.86
x2 = 0.2635	1.899
x2 = 0.2976	1.918
x2 = 0.3319	1.938
x2 = 0.3827	2.003
x2 = 0.4677	2.104
x2 = 0.6694	2.475
x2 = 0.8217	2.982

CCOCCOCCO + ClC(Cl)=C(Cl)Cl
298.15 K, 101.33 kPa
Conditions	viscosity [mPa·s]
x1 = 0.0123	0.859
x1 = 0.0256	0.874
x1 = 0.0478	0.903
x1 = 0.0645	0.928
x1 = 0.0824	0.956
x1 = 0.097	0.979
x1 = 0.1126	1.012
x1 = 0.1488	1.081
x1 = 0.1758	1.135
x1 = 0.2057	1.196
x1 = 0.2427	1.278
x1 = 0.2829	1.371
x1 = 0.3332	1.493
x1 = 0.3756	1.61
x1 = 0.4139	1.717
x1 = 0.4562	1.843
x1 = 0.4889	1.949
x1 = 0.5216	2.063
x1 = 0.5734	2.246
x1 = 0.6176	2.412
x1 = 0.6576	2.552
x1 = 0.6972	2.699
x1 = 0.7396	2.858
x1 = 0.8033	3.119
x1 = 0.854	3.335
x1 = 0.8945	3.519
x1 = 0.9227	3.64
x1 = 0.9398	3.718
x1 = 0.9556	3.786
x1 = 0.9736	3.873
x2 = 0.0112	3.936

c1ccccc1 + CCCCCCCCCC
Conditions	viscosity [mPa·s]
298 K, 101 kPa, x1 = 0.5	0.6712
298.15 K, 101.33 kPa, x2 = 0.03584	0.6003
298.15 K, 101.33 kPa, x2 = 0.1004	0.5986
298.15 K, 101.33 kPa, x2 = 0.2013	0.6012
298.15 K, 101.33 kPa, x2 = 0.2902	0.613
298.15 K, 101.33 kPa, x2 = 0.3988	0.6372
298.15 K, 101.33 kPa, x2 = 0.5	0.6648
298.15 K, 101.33 kPa, x2 = 0.5943	0.6949
298.15 K, 101.33 kPa, x2 = 0.7021	0.7313
298.15 K, 101.33 kPa, x2 = 0.8353	0.7784
298.15 K, 101.33 kPa, x2 = 0.9165	0.8085
318 K, 101 kPa, x1 = 0.5	0.5262

ClC(Cl)=C(Cl)Cl + CC(C)(C)O
303.15 K, 101.33 kPa
Conditions	viscosity [mPa·s]
x1 = 0.1027	2.16
x1 = 0.2143	1.557
x1 = 0.3299	1.249
x1 = 0.4102	1.122
x1 = 0.5188	1.006
x1 = 0.6036	0.946
x1 = 0.7072	0.895
x1 = 0.8124	0.852
x1 = 0.9075	0.821

O=[N+]([O-])c1ccccc1 + CCCCOC(C)=O
viscosity [mPa·s], 101 kPa
Conditions	298.15 K	308.15 K
x2 = 0.0477	1.576	1.399
x2 = 0.151	1.23	1.152
x2 = 0.2493	1.006	0.979
x2 = 0.35	0.848	0.849
x2 = 0.4488	0.743	0.755
x2 = 0.5	0.704	0.717
x2 = 0.5514	0.672	0.685
x2 = 0.6512	0.632	0.637
x2 = 0.7484	0.616	0.607
x2 = 0.8504	0.622	0.591
x2 = 0.9435	0.648	0.589

O=[N+]([O-])c1ccccc1 + COC(C)(C)C
viscosity [mPa·s], 101.33 kPa
Conditions	x2 = 0.0921	x2 = 0.1852	x2 = 0.2942	x2 = 0.3906	x2 = 0.4845	x2 = 0.695	x2 = 0.7094	x2 = 0.8055	x2 = 0.9053
293.15 K	1.745	1.535	1.345	1.096	1.011	0.7813	0.659	0.5509	0.4676
298.15 K	1.625	1.402	1.203	0.9995	0.8725	–	0.6043	0.507	0.4335

O=[N+]([O-])c1ccccc1 + CC(C)O
viscosity [mPa·s]
Conditions	293.15 K	298.15 K	303.15 K	308.15 K	313.15 K	318.15 K	323.15 K
100 kPa, x1 = 0.081	2.112	1.849	1.625	1.428	1.247	1.101	0.9776
100 kPa, x1 = 0.16	1.892	1.679	1.494	1.333	1.166	1.039	0.9339
100 kPa, x1 = 0.2401	1.742	1.56	1.402	1.264	1.111	1.003	0.9084
100 kPa, x1 = 0.3501	1.624	1.468	1.332	1.212	1.082	0.9879	0.9036
100 kPa, x1 = 0.44	1.597	1.446	1.318	1.203	1.088	1.002	0.9207
100 kPa, x1 = 0.56	1.637	1.482	1.347	1.232	1.134	1.05	0.9715
100 kPa, x1 = 0.6499	1.703	1.54	1.401	1.281	1.187	1.105	1.024
100 kPa, x1 = 0.7399	1.795	1.622	1.475	1.349	1.256	1.171	1.087
100 kPa, x1 = 0.85	1.92	1.739	1.586	1.454	1.355	1.262	1.174
100 kPa, x1 = 0.9399	2.022	1.842	1.685	1.55	1.442	1.342	1.25
101.33 kPa, x1 = 0.0512	–	1.881	1.567	–	–	–	–
101.33 kPa, x1 = 0.1088	–	1.67	1.476	–	–	–	–
101.33 kPa, x1 = 0.1732	–	1.529	1.344	–	–	–	–
101.33 kPa, x1 = 0.2456	–	1.462	1.297	–	–	–	–
101.33 kPa, x1 = 0.3281	–	1.459	1.277	–	–	–	–
101.33 kPa, x1 = 0.4228	–	1.45	1.292	–	–	–	–
101.33 kPa, x1 = 0.5325	–	1.439	1.323	–	–	–	–
101.33 kPa, x1 = 0.661	–	1.523	1.398	–	–	–	–
101.33 kPa, x1 = 0.8145	–	1.603	1.434	–	–	–	–

ClC(Cl)=C(Cl)Cl + COCCO
viscosity [mPa·s], 101.33 kPa
Conditions	x1 = 0.1062	x1 = 0.2046	x1 = 0.3091	x1 = 0.4453	x1 = 0.5214	x1 = 0.6184	x1 = 0.7146	x1 = 0.8062	x1 = 0.9015
303.15 K	1.365	1.273	1.178	1.066	1.009	0.943	0.89	0.846	0.808
313.15 K	1.111	1.049	0.985	0.907	0.866	0.819	0.778	0.747	0.727

CCCCCCC + CO
298.15 K
Conditions	viscosity [mPa·s]
101 kPa, x1 = 0.01	0.535
101 kPa, x1 = 0.02	0.5317
101 kPa, x1 = 0.03	0.5293
101 kPa, x1 = 0.04	0.5277
101 kPa, x1 = 0.05	0.5257
101 kPa, x1 = 0.06	0.5246
101 kPa, x1 = 0.08	0.5247
101 kPa, x1 = 0.09	0.5214
101.33 kPa, x2 = 0.0171	0.401
101.33 kPa, x2 = 0.0593	0.401
101.33 kPa, x2 = 0.0865	0.404
101.33 kPa, x2 = 0.1148	0.403
101.33 kPa, x2 = 0.9043	0.548
101.33 kPa, x2 = 0.9241	0.549
101.33 kPa, x2 = 0.9474	0.552
101.33 kPa, x2 = 0.9653	0.554
101.33 kPa, x2 = 0.9765	0.553

O=[N+]([O-])c1ccccc1 + CCOC(C)=O
viscosity [mPa·s], 101 kPa
Conditions	298.15 K	308.15 K
x1 = 0.1753	0.582	–
x1 = 0.4777	0.889	–
x1 = 0.6887	1.204	–
x2 = 0.0466	1.71	1.482
x2 = 0.1486	1.535	1.346
x2 = 0.2512	1.364	1.208
x2 = 0.3117	1.204	–
x2 = 0.3496	1.206	1.077
x2 = 0.4483	1.057	0.95
x2 = 0.4935	0.992	0.893
x2 = 0.5223	0.889	–
x2 = 0.5538	0.909	0.821
x2 = 0.6497	0.785	0.711
x2 = 0.7513	0.666	0.604
x2 = 0.8247	0.582	–
x2 = 0.8488	0.564	0.512
x2 = 0.9411	0.478	0.433

CCCCCO + OCCO
293.15 K, 101.33 kPa
Conditions	viscosity [mPa·s]
x2 = 0.0857	4.274
x2 = 0.1963	4.916
x2 = 0.2991	5.66
x2 = 0.3697	6.324
x2 = 0.4694	7.484
x2 = 0.5395	8.676
x2 = 0.5964	9.655
x2 = 0.713	12.32
x2 = 0.7884	14.03
x2 = 0.8506	15.9
x2 = 0.9407	18.94
